pEC50: −log10 of the molar value.
Each compound was assayed on NaCT-CHO (CHO cells stably expressing human NaCT) (assay: Assay of the citric acid cycle activation ([1,5-14C]-citric acid, diffusion of [14C]-CO2)). Details: 1 hour incubation at 37° C. with [1,5-14C]-citric acid.
Assay type: cell-based
From the text: Assay of the Citric Acid Cycle Activation
(1) Construction of the Human NaCT Expression Vector pME-NaCT
The human NaCT (also called SLC13A5 or NAC2; GenBank accession No. NM_177550) cDNA was inserted into the EcoRI-NotI site of the mammalian expression vector pME18S (GenBank accession No. AB009864) and purified by Qiagen Plasmid Maxi Kit (Qiagen).
(2) Establishment of NaCT Stably Expressed CHO Cells
The pME-NaCT vector and the pcDNA™3.1 vector containing the neomycin resistance gene (Life Technologies) were co-transfected into CHO-K1 cells (ATCC) by Lipofectaimine 2000 reagent (Life Technologies). The next day the cells were subcultured in Nutrient Mixture F-12 Ham (Sigma-Aldrich) with 10% FBS (Biological Industries), and Geneticin (Life Technologies) was added (final concentration 350 μg/mL) in the following day. CHO cell clones stably expressing NaCT were given by neomycin resistant cell screening and limiting dilution method. Established cell lines (named NaCT-CHO) were also maintained in culture medium (Nutrient Mixture F-12 Ham) with 10% FBS and 350 μg/mL Geneticin. For control cells (named pME-CHO) preparation, the naive pME18S were also transfected instead of pME-NaCT into CHO-K1 cells.
(3) Assay of the Citric Acid Cycle Activation
NaCT-CHO and pME-CHO were plated at 20,000 cells/well into white CulturPlate™-96 (PerkinElmer) two days before the assay. Prior to assay incubation, the cultured plates were washed twice with washing buffer, 10 mM HEPES-Tris(pH7.4) containing 140 mM choline chloride, 2 mM KCl, 1 mM CaCl2, 1 mM MgCl2. The compounds to be tested were dissolved and diluted in DMSO (Wako Pure Chemical industries) to 1,000 times of a final concentration, and further diluted to two times as high as the final concentration in assay buffer, 10 mM HEPES-Tris(pH7.4) containing 140 mM NaCl, 2 mM KCl, 1 mM CaCl2, 1 mM MgCl2. The range of final concentrations was properly determined based on the test compounds activity. Each 25 μL compound solution was added to well and subsequently 25 μL radio-labeled substrate solution containing 0.4 mM (0.4 MBq/mL) [1,5-^14C]-citric acid (PerkinElmer) in the assay buffer was added. After 1 hour incubation at 37° C., the reaction mixture was discarded and washed three times with pre-chilled washing buffer and then 0.1 mL MicroScint 20 (PerkinElmer) was added to well. The plate was sealed with TopSeal-A (PerkinElmer) and the radioactivity was measured using a TopCount (PerkinElmer). Non-specific activity (NS cpm) and total radio activity (Total cpm) were determined by counting of pME-CHO plated wells and NaCT-CHO plated wells without compounds, respectively. Diffusion of [^14C]—CO2 was able to be estimated from residual radioactivity (R cpm) by an equation (Total−R)/(Total−NS)×100(%). The difference of Total and R was disappeared in the presence of 0.1 μM antimycin A. EC50 values were calculated by regression analysis using SAS Statistical Analysis System (SAS institute Japan Ltd. Release 9.1).
In the case of `CCc1sc(-c2cccc(C(F)(F)F)c2)nc1-c1nn[nH]c1C#N` [Example 99, 5-[5-ethyl-2-(3-trifluoromethyl-phenyl)-thiazol-4-yl]-3H-[1,2,3]triazole-4-carbonitrile], the pEC50 was 6.27.
`Cc1cc(-c2cc(F)cc(C(F)(F)F)c2)cc(-c2nn[nH]c2C#N)c1` [Example 31, 5-(5′-fluoro-5-methyl-3′-trifluoromethyl-biphenyl-3-yl)-3H-[1,2,3]triazole-4-carbonitrile] was tested, and the pEC50 was 6.42.
`Cc1cc(-c2nn[nH]c2C#N)ccc1Cc1cccc(C(F)(F)F)c1` [Example 71, 5-[3-methyl-4-(3-trifluoromethyl-benzyl)-phenyl]-3H-[1,2,3]triazole-4-carbonitrile] was tested, and the pEC50 was 6.23.
`N#Cc1[nH]nnc1-c1ccc(Oc2cccc(C(F)(F)F)c2)s1` [Example 132, 5-[5-(3-trifluoromethyl-phenoxy)-thiophen-2-yl]-3H-[1,2,3]triazole-4-carbonitrile] showed a pEC50 of 6.49.
In the case of `N#Cc1[nH]nnc1-c1sc2ccccc2c1-c1ccc(F)cc1` [Example 148, 5-[3-(4-fluoro-phenyl)-benzo[b]thiophen-2-yl]-3H-[1,2,3]triazole-4-carbonitrile], the pEC50 was 6.04.
Work on `Cc1nc(-c2ccc(Cl)cc2)sc1-c1nn[nH]c1C#N` [Example 113, 5-[2-(4-chloro-phenyl)-4-methyl-thiazol-5-yl]-3H-[1,2,3]triazole-4-carbonitrile] yielded a pEC50 of 6.10.
For `N#Cc1[nH]nnc1-c1cccc(CN2CCc3ccccc32)c1` [Example 36, 5-[3-(2,3-dihydro-indol-1-ylmethyl)-phenyl]-3H-[1,2,3]triazole-4-carbonitrile], the pEC50 was 6.35.
Work on `CCCc1oc(-c2ccc(Cl)cc2)nc1-c1nn[nH]c1C#N` [Example 119, 5-[2-(4-chloro-phenyl)-5-propyl-oxazol-4-yl]-3H-[1,2,3]triazole-4-carbonitrile] yielded a pEC50 of 6.15.
Work on `N#Cc1[nH]nnc1-c1cccc(COCC2CCCCC2)c1` [Example 3, 5-(3-cyclohexylmethoxymethyl-phenyl)-3H-[1,2,3]triazole-4-carbonitrile] yielded a pEC50 of 6.59.
For `Cc1sc(-c2cccc(C(F)(F)F)n2)nc1-c1nn[nH]c1C#N` [Example 94, 5-[5-methyl-2-(6-trifluoromethyl-pyridin-2-yl)-thiazol-4-yl]-3H-[1,2,3]triazole-4-carbonitrile], the pEC50 was 6.10.
Work on `N#Cc1[nH]nnc1-c1nc(-c2ccc(OC(F)(F)F)cc2)cs1` [Example 74, 5-[4-(4-trifluoromethoxy-phenyl)-thiazol-2-yl]-3H-[1,2,3]triazole-4-carbonitrile] yielded a pEC50 of 5.54.
Compound `N#Cc1[nH]nnc1-c1cc(Oc2ccccc2)cc(C(F)(F)F)c1` [Example 37, 5-(3-phenoxy-5-trifluoromethyl-phenyl)-3H-[1,2,3]triazole-4-carbonitrile] has a pEC50 of 6.92.
Work on `CCOCc1cc(-c2ccc(F)cc2)cc(-c2nn[nH]c2C#N)c1` [Example 33, 5-(5-ethoxymethyl-4′-fluoro-biphenyl-3-yl)-3H-[1,2,3]triazole-4-carbonitrile] yielded a pEC50 of 6.57.
`CN(Cc1cccc(-c2nn[nH]c2C#N)c1)c1ccc(F)cc1` [Example 54, 5-(3-{[N-(4-fluoro-phenyl)-N-methyl-amino]-methyl}-phenyl)-3H-[1,2,3]triazole-4-carbonitrile] gave a pEC50 of 6.37.
For `CC(C)Cc1oc(-c2ccc(F)c(F)c2)nc1-c1nn[nH]c1C#N` [Example 125, 5-[2-(3,4-difluoro-phenyl)-5-isobutyl-oxazol-4-yl]-3H-[1,2,3]triazole-4-carbonitrile], the pEC50 was 6.27.
For `N#Cc1[nH]nnc1-c1ccc2ccn(-c3ccc(F)c(F)c3)c2c1` [Example 145, 5-[1-(3,4-difluoro-phenyl)-1H-indol-6-yl]-3H-[1,2,3]triazole-4-carbonitrile], the pEC50 was 6.43.
`N#Cc1[nH]nnc1-c1csc(Sc2ccc(Cl)cc2)n1` [Example 86, 5-[2-(4-chloro-phenylsulfanyl)-thiazol-4-yl]-3H-[1,2,3]triazole-4-carbonitrile] gave a pEC50 of 6.17.
For `Cc1sc(Oc2ccc(OC(F)(F)F)cc2)nc1-c1nn[nH]c1C#N` [Example 96, 5-[5-methyl-2-(4-trifluoromethoxy-phenoxy)-thiazol-4-yl]-3H-[1,2,3]triazole-4-carbonitrile], the pEC50 was 6.17.
Work on `N#Cc1[nH]nnc1-c1ccc(Cc2ccc(Cl)cc2)s1` [Example 131, 5-[5-(4-chloro-benzyl)-thiophen-2-yl]-3H-[1,2,3]triazole-4-carbonitrile] yielded a pEC50 of 6.36.
`N#Cc1[nH]nnc1-c1cccc(COc2cc(C(F)(F)F)cc(C(F)(F)F)c2)c1` [Example 57, 5-[3-(3,5-bis-trifluoromethyl-phenoxymethyl)-phenyl]-3H-[1,2,3]triazole-4-carbonitrile] gave a pEC50 of 6.32.
For `N#Cc1[nH]nnc1-c1nc(-c2ccc(Cl)cc2)sc1-c1ccc(C(F)(F)F)cc1` [Example 107, 5-[2-(4-chloro-phenyl)-5-(4-trifluoromethyl-phenyl)-thiazol-4-yl]-3H-[1,2,3]triazole-4-carbonitrile], the pEC50 was 5.59.
Work on `N#Cc1[nH]nnc1-c1cc(-c2ccsc2)cc(C(F)(F)F)c1` [Example 10, 5-(3-(thiophen-3-yl)-5-trifluoromethyl-phenyl)-3H-[1,2,3]triazole-4-carbonitrile] yielded a pEC50 of 7.15.
Compound `Cc1sc(-c2ccc(C(F)(F)F)cn2)nc1-c1nn[nH]c1C#N` [Example 93, 5-[5-methyl-2-(5-trifluoromethyl-pyridin-2-yl)-thiazol-4-yl]-3H-[1,2,3]triazole-4-carbonitrile] has a pEC50 of 6.24.
For `N#Cc1[nH]nnc1-c1cnc(-c2cccc(C(F)(F)F)c2)s1` [Example 111, 5-[2-(3-trifluoromethyl-phenyl)-thiazol-5-yl]-3H-[1,2,3]triazole-4-carbonitrile], the pEC50 was 6.12.
With `N#Cc1[nH]nnc1-c1cc(OCc2cc(C(F)(F)F)ccc2C(F)(F)F)cc(C(F)(F)F)c1` [Example 63, 5-[3-(2,5-bis-trifluoromethyl-benzyloxy)-5-trifluoromethyl-phenyl]-3H-[1,2,3]triazole-4-carbonitrile] the pEC50 was 6.02.
Compound `N#Cc1[nH]nnc1CCc1ccccc1OCc1cc(C(F)(F)F)ccc1C(F)(F)F` [Example 150, 5-{2-[2-(2,5-bis-trifluoromethyl-benzyloxy)-phenyl]-ethyl}-3H-[1,2,3]triazole-4-carbonitrile] has a pEC50 of 6.07.
Compound `N#Cc1[nH]nnc1-c1csc(Oc2cccc(C(F)(F)F)c2)n1` [Example 85, 5-[2-(3-trifluoromethyl-phenoxy)-thiazol-4-yl]-3H-[1,2,3]triazole-4-carbonitrile] has a pEC50 of 6.16.
`N#Cc1[nH]nnc1-c1cc(CCc2cccc(C(F)(F)F)n2)cc(C(F)(F)F)c1` [Example 39, 5-{3-trifluoromethyl-5-[2-(6-trifluoromethyl-pyridin-2-yl)-ethyl]-phenyl}-3H-[1,2,3]triazole-4-carbonitrile] showed a pEC50 of 6.15.
Work on `N#Cc1[nH]nnc1C1CCN(c2cc(C(F)(F)F)ccc2C(F)(F)F)CC1` [Example 144, 5-[1-(2,5-bis-trifluoromethyl-phenyl)-piperidin-4-yl]-3H-[1,2,3]triazole-4-carbonitrile] yielded a pEC50 of 6.10.
For `CC(C)c1oc(-c2ccc(F)cc2)nc1-c1nn[nH]c1C#N` [Example 123, 5-[2-(4-fluoro-phenyl)-5-isopropyl-oxazol-4-yl]-3H-[1,2,3]triazole-4-carbonitrile], the pEC50 was 6.17.
`N#Cc1[nH]nnc1-c1ccc(C(F)(F)F)c(/C=C/c2cccc(C(F)(F)F)c2)c1` [Example 46, 5-{4-trifluoromethyl-3-[(E)-2-(3-trifluoromethyl-phenyl)-vinyl]-phenyl}-3H-[1,2,3]triazole-4-carbonitrile] gave a pEC50 of 6.01.
Compound `N#Cc1[nH]nnc1-c1ccc(/C=C/c2cccc(C(F)(F)F)c2)cc1F` [Example 73, 5-{2-fluoro-4-[(E)-2-(3-trifluoromethyl-phenyl)-vinyl]-phenyl}-3H-[1,2,3]triazole-4-carbonitrile] has a pEC50 of 6.14.
Compound `N#Cc1[nH]nnc1-c1cc(C(F)(F)F)ccc1/C=C/c1ccccc1` [Example 6, 5-[2-((E)-styryl)-5-trifluoromethyl-phenyl]-3H-[1,2,3]triazole-4-carbonitrile] has a pEC50 of 6.40.
